# Measurements as given in patent US20220364056A1, “SHORT-CHAIN FATTY ACID PENTANOATE AS ENHANCER FOR CELLULAR THERAPY AND ANTI-TUMOR THERAPY” (PHILIPPS-UNIVERSITÄT MARBURG, priority 2019, published 2022).
# Experiments:
# [1] = test system: promoter region of Ifnγ, Tbx21 and Eomes; test: pan-H4Ac ChIP at CTL-characteristic loci; assay type: cell-based, mice; details: 24 hours of treatment
# Procedure: (A) Experimental design for the treatment of CTLs with the water-soluble fraction of intestinal content derived from SPF or GF mice. (B and C) Frequencies of IFN-γ- and TNF-α-producing CTLs treated with the extract from luminal content derived from indicated organs. Representative results of two experiments are shown (n=3). (D) ELISA was performed to measure the secretion of TNF-α by CLTs treated as shown in (A). (E) Quantitative measurement of total SCFA amounts in fecal samples of SPF and GF mice (n=5). (F and G) The percentage of IFN-γ^+ TNF-α^+ CTLs treated with the indicated SCFAs for three days (n=3, one of three independent experiments is shown). (H) The secretion of TNF-α from CTLs treated with SCFAs was determined by ELISA (n=3, one of two independent experiments is shown). (I) The fluorogenic HDAC assay was applied to measure the HDAC inhibitory activity of SCFAs on CTLs. The value for unstimulated CTLs was arbitrarily set to 1.0. Four independent experiments were performed. (J and K) Representative contour plots (J) and bar graphs (K) showing the frequency of IFN-γ+ and TNF-α+ cells after pentanoate (2 mM) or VPA (0.5 mM) administration. Three similar experiments were performed. (L and M) The frequency of Eomes- and T-bet-expressing CTLs treated with pentanoate (2 mM) or VPA (0.5 mM) for three days was analyzed by flow cytometry (n=4). […]
# [2] = test system: Tc9 and Tc17 cells; test: CD8+ T cells polarized under Tc17- or Tc9-inducing conditions; assay type: cell-based, murine; details: 3 days
# Procedure: (A and B) CD8^+ T cells isolated from spleens and LNs were polarized under Tc17-inducing conditions and treated with pentanoate for 3 days. Representative contour plots (A) and bar graphs (B) indicate the frequency of IL-17^+ and IFN-γ+ cells. Three similar experiments were performed. (C and D) CD8^+ T cells isolated from spleens and LNs were polarized under Tc9-inducing conditions and treated with pentanoate for 3 days. Representative contour plots (C) and bar graphs (D) are showing the frequency of IL-9^+ and IFN-γ+ cells. Three similar experiments were performed. (E and F) The expression of granzyme B, IFN-γ and Eomes in pentanoate-treated human CTLs was analysed by flow cytometry. Five independent experiments were performed (E). For Eomes, mean fluorescence intensity (MFI) values are shown (F, n=3).
# [3] = test system: B16OVA melanoma cells; test: adoptive transfer of pretreated OT-I CTLs into mice bearing s.c. B16OVA tumors; assay type: in vivo
# [4] = test system: human CAR T cells; test: human ROR1-specific CAR T cells pretreated, then co-cultured with ROR1-expressing K562 cells; assay type: cell-based
# Text: We next investigated the impact of SCFAs on human CD8^+ T lymphocytes and CAR T cells.
# (A) CD8^+ T cells isolated from peripheral blood of healthy donors were differentiated into CTLs in presence or absence of indicated HDACi. Representative contour plots and dot plots indicate the frequency of TNF-α+ and IFN-γ^+ cells. Data points in the graphs represent individual donors (n=4, performed in 4 independent experiments) (B-G) Phenotyping of pentanoate-treated ROR1-specific CD8^+ CAR T cells (CARROR1 T cells). (B) Experimental setup for the functional analysis is shown. (C) The cytokine secretion (IFN-γ and TNF-α) was analysed in supernatants of pentanoate-treated CARROR1 T cells by ELISA. (D) The surface expression of CD25 was measured by flow cytometry. (E) The secretion of IL-2 was detected in supernatants of CARROR1 T cells by ELISA. (F) Proliferation of CARROR1 T cells was determined by CFSE labelling. CARROR1 T cells pre-treated with pentanoate were stained with CFSE and subsequently co-cultured with […] cells in the absence of pentanoate. CD8^+ T cells without the CAR construct were used as mock control cells. (G) The cytolytic activity of CARROR1 T cells was examined by analysis of specific lysis following encounter with luciferase-expressing […] cells. The percentage of lysed target cells was determined in 1 hour intervals (effector-to-target cell (E:T) ratio=2.5:1). Data points shown in the graphs (C-G) represent CARROR1 T cells derived from three different donors. Following pentanoate pre-treatment, the stimulation was mediated by co-culture of CD8^+ CARROR1 T cells with ROR1-expressing K652 ([…]) cells in the absence of pentanoate.
structure (smiles),measurement,setting,value
CCCCC(=O)O [pentanoate],"H4 acetylation at the promoter region of Ifnγ, Tbx21 and Eomes",[1],enhance H4 acetylation
same,phenotype of Tc9 and Tc17 cells,[2],phenotypical switch towards IFN-γ-producing CTLs
same,tumor volume and weight,"[3]; OT-I CTLs pretreated three days with pentanoate, transferred day 5 after tumor injection",decreased tumor volume and weight
same,"number of transferred cells expressing TNF-α and IFN-γ in tumors, draining LNs and spleen","[3]; day 10 after adoptive transfer, vs control OT-I CTLs",higher number
same,proliferation of CAR T cells,"[4]; CFSE labelling, vs control CAR T cells",proliferated stronger
same,expression of CD25,[4]; pretreated 4 days,upregulated
same,production of IFN-γ and TNF-α,"[4]; pretreated 4 days, ELISA",elevated the production
same,secretion of IL-2,"[4]; pretreated 4 days, ELISA",upregulated
same,cytolytic activity,"[4]; specific lysis, E:T ratio 2.5:1",superior cytolytic activity
